Test results taken from patent publication US5344927A, “Tetrahydrobenzimidazole derivatives and pharmaceutical compositions containing same” (Yamanouchi Pharmaceutical Co., Ltd., priority 1989, dated 1994).

Biological target: T1, 5-HT3 -receptor (Rattus norvegicus, UniProt P35563)
T1 construct: Transient reduction in heart rate and blood pressure induced by intravenous administration of serotonin; from tissue
T1 sequence (P35563 24-483): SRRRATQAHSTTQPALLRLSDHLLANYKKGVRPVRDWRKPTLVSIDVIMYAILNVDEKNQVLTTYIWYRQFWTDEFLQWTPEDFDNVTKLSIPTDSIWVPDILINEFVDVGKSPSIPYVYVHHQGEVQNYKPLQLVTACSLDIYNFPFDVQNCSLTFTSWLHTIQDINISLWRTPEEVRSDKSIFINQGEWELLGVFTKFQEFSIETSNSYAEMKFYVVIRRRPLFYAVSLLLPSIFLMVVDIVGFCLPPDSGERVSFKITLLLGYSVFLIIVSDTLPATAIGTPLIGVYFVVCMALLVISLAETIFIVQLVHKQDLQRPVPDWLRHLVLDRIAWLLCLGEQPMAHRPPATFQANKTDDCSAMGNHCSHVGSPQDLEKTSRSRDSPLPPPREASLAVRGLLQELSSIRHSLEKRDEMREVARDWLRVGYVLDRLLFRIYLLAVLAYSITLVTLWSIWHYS
Experiment: Antagonism against 5-HT3-receptor: serotonin-induced Bezold-Jarish (BJ) reflex in anesthetized rats
Format: in vivo
Conditions: iv, 10 min, i.v., urethane-anesthetized Wistar male rats, given 10 minutes before serotonin, read-out: BJ Reflex Inhibitory Activity ED50
Procedure: Nine-week-old Wistar male rats were anesthetized by intraperitoneal administration of 1 g/kg of urethane, and blood pressure and heart rate were measured under artificial respiration. Transient reduction in heart rate and blood pressure induced by intravenous administration of serotonin or 2-methylserotonin which is a selective agonist of 5-HT3 was taken as an index of the reaction via 5-HT3 receptor [Bezold-Jarish reflex; Paintal, A. S., Pysiolo. Rev., Vol. 53, p. 159 (1973)].
Inhibitory activity of the compound of the present invention on serotonin-induced Bezold-Jarish (BJ) reflex in rats is shown in Table 1 below.

SMILES	ED50 [µg/kg]
O=C(C1CCc2nc[nH]c2C1)N1CCc2ccccc21.O=C(O)/C=C/C(=O)O (centres unmarked) [Example 2, 5-[(2,3-Dihydroindol-1-yl)carbonyl]-4,5,6,7-tetrahydrobenzimidazole fumarate]	0.29
O=C(C1CCc2nc[nH]c2C1)n1c(=O)[nH]c2ccccc21 (centres unmarked) [Example 9, 1-[(4,5,6,7-tetrahydrobenzimidazol-5-yl)carbonyl]-2,3-dihydrobenzimidazol-2-one]	0.8
